Results from US8017612B2, “Piperazine compound and use thereof as a HCV polymerase inhibitor” (priority 2006, dated 2011).

How the values were obtained:
[1] = biological target: T1, HCV polymerase (NS5B) type 1b (Hepatitis C virus genotype 1b, UniProt P26663); assay: Assay of enzyme (HCV polymerase) inhibitory activity, type 1b enzyme; type: biochemical, HCV BK strain (type 1b); conditions: HCV polymerase inhibitory activity IC50, 1b, type 1b enzyme
T1 construct: a region encoding NS5B (J Virol 1991 March, 65(3), 1105-13, 544 amino acids after deletion of 47 amino acids on the C-terminal); 6xHis (C); made in house; host or cells: Escherichia coli
Method in brief: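 NS5B from HCV BK strain (type 1b), C-terminal 47 aa deleted, C-terminal His6-tagged, E. coli-expressed, 0.5 μg/ml, with ~450 nt substrate RNA carrying the 3′ UTR (polyU, 3′X) at 5 μg/ml. Incubation 60 min at 25 °C with 50 μM ATP/GTP/CTP, 2 μM UTP plus [3H]UTP, pH 7.5 Tris.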

[2] = biological target: T2, HCV polymerase (NS5B) type 1a (Hepatitis C virus genotype 1a, UniProt P26664); assay: Assay of enzyme (HCV polymerase) inhibitory activity, type 1a enzyme; type: biochemical, HCV type 1a (cloned from the blood of patients); conditions: HCV polymerase inhibitory activity IC50, 1a, type 1a enzyme
T2 construct: made in house; host or cells: Escherichia coli (by the 'similar method' of the 1b enzyme)
Method in brief: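 Patient-derived type 1a NS5B (C-terminal 47-aa deletion, His-tagged, E. coli-expressed) at 1.5 μg/ml was reacted with 5 μg/ml 3′UTR-containing substrate RNA, 50 μM ATP/GTP/CTP, 2 μM UTP plus [3H]UTP, pH 7.5, 25° C for 60 min. TCA-precipitated RNA radioactivity was counted; IC50 from ± compound.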

| SMILES | IC50 [1] | IC50 [2] |
| --- | --- | --- |
| CCCN1CCC(CNC(=O)[C@H]2CN(C(C)=O)CCN2S(=O)(=O)c2ccc(OC(F)(F)F)cc2)CC1 [Example 681, (R)-4-acetyl-1-(4-trifluoromethoxy-benzenesulfonyl)-piperazine-2-carboxylic acid (1-propyl-piperidin-4-ylmethyl)-amide] | > 1000 nM | > 1000 nM |
| CC(=O)N1CCN(S(=O)(=O)c2ccc(OC(F)(F)F)cc2)[C@@H](C(=O)NCCc2ccccc2O)C1 [Example 682, (R)-4-acetyl-1-(4-trifluoromethoxy-benzenesulfonyl)-piperazine-2-carboxylic acid [2-(2-hydroxy-phenyl)-ethyl]-amide] | > 1000 nM | > 1000 nM |
| CCC(F)(F)c1ccc(CNC(=O)[C@H]2CN(c3cnc4cncnc4n3)CCN2S(=O)(=O)c2ccc(Br)cc2)cc1 [Example 683, (R)-1-(4-bromo-benzenesulfonyl)-4-pteridin-7-yl-piperazine-2-carboxylic acid 4-(1,1-difluoro-propyl)-benzylamide] | < 100 nM | < 100 nM |
| CCC(F)(F)c1ccc(CNC(=O)[C@H]2CN(c3cnc4cc(Br)ccc4n3)CCN2S(=O)(=O)c2ccc(OC(F)(F)F)cc2)cc1 [Example 684, (R)-4-(6-bromo-quinoxalin-2-yl)-1-(4-trifluoromethoxy-benzenesulfonyl)-piperazine-2-carboxylic acid 4-(1,1-difluoro-propyl)-benzylamide] | 100 to 1000 nM | 100 to 1000 nM |
| CCC(F)(F)c1ccc(CNC(=O)[C@H]2CN(c3cnc4ccc(Br)cc4n3)CCN2S(=O)(=O)c2ccc(OC(F)(F)F)cc2)cc1 [Example 685, (R)-4-(7-bromo-quinoxalin-2-yl)-1-(4-trifluoromethoxy-benzenesulfonyl)-piperazine-2-carboxylic acid 4-(1,1-difluoro-propyl)-benzylamide] | 100 to 1000 nM | 100 to 1000 nM |
| CCC(F)(F)c1ccc(CNC(=O)[C@H]2CN(c3cnc4cncnc4n3)CCN2S(=O)(=O)c2ccc(C(F)(F)F)cc2)cc1 [Example 686, (R)-4-pteridin-7-yl-1-(4-trifluoromethyl-benzenesulfonyl)-piperazine-2-carboxylic acid 4-(1,1-difluoro-propyl)-benzylamide] | < 100 nM | < 100 nM |
| CCCc1ccc(CNC(=O)[C@H]2CN(c3cnc(C(=O)O)cn3)CCN2S(=O)(=O)c2ccc(Br)cc2)cc1 [Example 687, (R)-4-(4-bromo-benzenesulfonyl)-3-(4-propyl-benzylcarbamoyl)-3,4,5,6-tetrahydro-2H-[1,2′]bipyrazinyl-5′-carboxylic acid] | < 100 nM | < 100 nM |
| CCC(F)(F)c1ccc(CNC(=O)[C@H]2CN(c3cnc4cc(Cl)ccc4n3)CCN2S(=O)(=O)c2ccc(OC(F)(F)F)cc2)cc1 [Example 688, (R)-4-(6-chloro-quinoxalin-2-yl)-1-(4-trifluoromethoxy-benzenesulfonyl)-piperazine-2-carboxylic acid 4-(1,1-difluoro-propyl)-benzylamide] | 100 to 1000 nM | 100 to 1000 nM |
| CC(C)(C)c1ccc(CNC(=O)[C@H]2CN(c3cnc4cnccc4n3)CCN2S(=O)(=O)c2ccc(OC(F)(F)F)cc2)cc1 [Example 689, (R)-4-pyrido[3,4-b]pyrazin-2-yl-1-(4-trifluoromethoxy-benzenesulfonyl)-piperazine-2-carboxylic acid 4-tert-butyl-benzylamide] | < 100 nM | < 100 nM |
| CCC(F)(F)c1ccc(CNC(=O)[C@H]2CN(c3cnc4nsnc4n3)CCN2S(=O)(=O)c2ccc(OC(F)(F)F)cc2)cc1 [Example 691, (R)-4-[1,2,5]thiadiazolo[3,4-b]pyrazin-5-yl-1-(4-trifluoromethoxy-benzenesulfonyl)-piperazine-2-carboxylic acid 4-(1,1-difluoro-propyl)-benzylamide] | < 100 nM | < 100 nM |
| CCC(F)(F)c1ccc(CNC(=O)[C@H]2CN(c3cnc4cnc(C)nc4n3)CCN2S(=O)(=O)c2ccc(OC(F)(F)F)cc2)cc1 [Example 692, (R)-4-(2-methyl-pteridin-7-yl)-1-(4-trifluoromethoxy-benzenesulfonyl)-piperazine-2-carboxylic acid 4-(1,1-difluoro-propyl)-benzylamide] | < 100 nM | < 100 nM |
| CCOC(=O)c1ccc2nc(N3CCN(S(=O)(=O)c4ccc(OC(F)(F)F)cc4)[C@@H](C(=O)NCc4ccc(C(F)(F)CC)cc4)C3)cnc2c1 [Example 693, 2-[(R)-3-[4-(1,1-difluoro-propyl)-benzylcarbamoyl]-4-(4-trifluoromethoxy-benzenesulfonyl)-piperazin-1-yl]-quinoxaline-6-carboxylic acid ethyl ester] | 100 to 1000 nM | > 1000 nM |
| CCC(F)(F)c1ccc(CNC(=O)[C@H]2CN(c3nc4cnncc4s3)CCN2S(=O)(=O)c2ccc(OC(F)(F)F)cc2)cc1 [Example 694, (R)-4-thiazolo[4,5-d]pyridazin-2-yl-1-(4-trifluoromethoxy-benzenesulfonyl)-piperazine-2-carboxylic acid 4-(1,1-difluoro-propyl)-benzylamide] | < 100 nM | < 100 nM |
| CCC(F)(F)c1ccc(CNC(=O)[C@H]2CN(c3cnc4cncnc4n3)CCN2S(=O)(=O)c2ccc(C(C)(C)C)cc2)cc1 [Example 695, (R)-1-(4-tert-butyl-benzenesulfonyl)-4-pteridin-7-yl-piperazine-2-carboxylic acid 4-(1,1-difluoro-propyl)-benzylamide] | < 100 nM | < 100 nM |
| CCC(F)(F)c1ccc(CNC(=O)[C@H]2CN(c3cnc4cncnc4n3)CCN2S(=O)(=O)c2ccc(-c3ccccc3)cc2)cc1 [Example 696, (R)-1-(biphenyl-4-sulfonyl)-4-pteridin-7-yl-piperazine-2-carboxylic acid 4-(1,1-difluoro-propyl)-benzylamide] | < 100 nM | < 100 nM |
| CCC(F)(F)c1ccc(CNC(=O)[C@H]2CN(c3cnc4cncnc4n3)CCN2S(=O)(=O)c2ccc(Cl)cc2)cc1 [Example 697, (R)-1-(4-chloro-benzenesulfonyl)-4-pteridin-7-yl-piperazine-2-carboxylic acid 4-(1,1-difluoro-propyl)-benzylamide] | < 100 nM | < 100 nM |
| CCC(F)(F)c1ccc(CNC(=O)[C@H]2CN(c3cnc4cncnc4n3)CCN2S(=O)(=O)c2ccc([N+](=O)[O-])cc2)cc1 [Example 698, (R)-1-(4-nitro-benzenesulfonyl)-4-pteridin-7-yl-piperazine-2-carboxylic acid 4-(1,1-difluoro-propyl)-benzylamide] | < 100 nM | < 100 nM |
| CCCc1ccc(CNC(=O)[C@H]2CN(c3cnc(C(=O)O)cn3)CCN2S(=O)(=O)c2ccc(Br)s2)cc1 [Example 699, (R)-4-(5-bromo-thiophene-2-sulfonyl)-3-(4-propyl-benzylcarbamoyl)-3,4,5,6-tetrahydro-2H-[1,2′]bipyrazinyl-5′-carboxylic acid] | < 100 nM | < 100 nM |
| CCCc1ccc(CNC(=O)[C@H]2CN(c3cnc(C(=O)O)cn3)CCN2S(=O)(=O)c2ccc(C(C)(C)C)cc2)cc1 [Example 700, (R)-4-(4-tert-butyl-benzenesulfonyl)-3-(4-propyl-benzylcarbamoyl)-3,4,5,6-tetrahydro-2H-[1,2′]bipyrazinyl-5′-carboxylic acid] | < 100 nM | < 100 nM |
| CCCc1ccc(CNC(=O)[C@H]2CN(c3cnc(C(=O)O)cn3)CCN2S(=O)(=O)c2ccc(-c3ccccc3)cc2)cc1 [Example 701, (R)-4-(biphenyl-4-sulfonyl)-3-(4-propyl-benzylcarbamoyl)-3,4,5,6-tetrahydro-2H-[1,2′]bipyrazinyl-5′-carboxylic acid] | < 100 nM | < 100 nM |
| CC(=O)N1CCN(S(=O)(=O)c2ccc(OC(F)(F)F)cc2)[C@@H](C(=O)NCc2ccc(CCCO)cc2)C1 [Example 702, (R)-4-acetyl-1-(4-trifluoromethoxy-benzenesulfonyl)-piperazine-2-carboxylic acid 4-(3-hydroxy-propyl)-benzylamide] | > 1000 nM | > 1000 nM |
| CCCn1cc(CNC(=O)[C@H]2CN(C(C)=O)CCN2S(=O)(=O)c2ccc(OC(F)(F)F)cc2)cn1 [Example 703, (R)-4-acetyl-1-(4-trifluoromethoxy-benzenesulfonyl)-piperazine-2-carboxylic acid (1-propyl-1H-pyrazol-4-ylmethyl)-amide] | > 1000 nM | > 1000 nM |
| CCC(F)(F)c1ccc(CNC(=O)[C@H]2CN(C3=NC(=O)CS3)CCN2S(=O)(=O)c2ccc(OC(F)(F)F)cc2)cc1 [Example 704, (R)-4-(4-oxo-4,5-dihydro-thiazol-2-yl)-1-(4-trifluoromethoxy-benzenesulfonyl)-piperazine-2-carboxylic acid 4-(1,1-difluoro-propyl)-benzylamide] | < 100 nM | < 100 nM |
| CCC(F)(F)c1ccc(CNC(=O)[C@H]2CN(C(=O)N3CC(C(=O)O)C3)CCN2S(=O)(=O)c2ccc(OC(F)(F)F)cc2)cc1 [Example 705, 1-[(R)-3-[4-(1,1-difluoro-propyl)-benzylcarbamoyl]-4-(4-trifluoromethoxy-benzenesulfonyl)-piperazine-1-carbonyl]-azetidine-3-carboxylic acid] | > 1000 nM | > 1000 nM |
